The target in one test is α1B (Cav2.2), β3 and α2δ subunits of the N-type calcium channel (stable HEK cell line) (Rattus norvegicus, UniProt Q02294). As to the kind of experiment: Calcium-dye indicator assay (FDSS, KCl depolarization). Particulars: calcium mobilization response to 50 mM KCl; six-point concentration-response. Format: cell-based. The protocol: A stable cell line (HEK parent) co-expressing the α1B (Cav2.2), β3 and α2δ subunits of the N-type calcium channel subunits was used. These cells were routinely grown as monolayers in low glucose-containing Dulbecco's Modified Eagle Medium supplemented with 10% FBS, 2 mM L-glutamine, 100 I.U./mL penicillin, 100 μg/mL streptomycin, 400 μg/mL G418 and 200 μg/mL Zeocin (split ratio=1:5). Cells were maintained in 5% CO2 at 37° C. Compounds of Formula (I) were prepared as 10 mM stocks in DMSO from neat compound, if available. Otherwise, the 5 or 10 mM DMSO stock solutions provided in-house were used.
Calcium mobilization responses to KCl depolarization were evaluated by measuring the intensity of calcium-mediated fluorescent signal in the presence of BD Calcium Assay Dye (BD Biosciences, Franklin Lakes, N.J., U.S.A.), utilizing a Functional Drug Screening System (FDSS) by Hamamatsu Corporation (Bridgewater, N.J., U.S.A.).
Twenty-four hours prior to assay, cells were seeded in clear-base poly-D-lysine coated 384-well plates (BD Biosciences) at a density of 5,000 cells per well in culture medium and grown overnight in 5% CO2 at 37° C. On the day of assay growth media were removed and cells were loaded with BD calcium assay dye (BD Biosciences) for 35 min at 37° C. under 5% CO2 and then for 25 min at room temperature. Utilizing the FDSS, cells were exposed to representative compounds of Formula (I) at varying concentrations and intracellular calcium was measured for 5 min prior to the addition of 50 mM KCl for an additional 3 min of measurement.
Maximal fluorescence intensity (FI) achieved upon addition of 50 mM KCl was exported from the FDSS software and further analyzed using GraphPad Prism 4 (Graph Pad Software Inc., CA, U.S.A.). Data were normalized to the maximum average counts from quadruplicate wells for each condition in the presence of 50 mM KCl and to the minimum average counts in the presence of buffer. Theoretical curves were generated using nonlinear regression curve-fitting analysis of either sigmoidal concentration-response or sigmoidal concentration-response (variable slope), and the IC50 values with the best-fit dose curve determined by GraphPad Prism were reported.
(Calcium assays in cells follow changes in intracellular calcium, usually with a dye or a luminescent sensor.)
On to `COc1ccccc1-n1nc(C2CC(C)(C)OC(C)(C)C2)cc1C1=CCC(C)(C)CC1` [Compound 8, 5-(4,4-Dimethylcyclohex-1-en-1-yl)-1-(2-methoxyphenyl)-3-(2,2,6,6-tetramethyltetrahydro-2H-pyran-4-yl)-1H-pyrazole], for which the IC50 amounted to 1.6 nM.
On the same count and under the same terms, the value for `COc1ccccc1-n1nc(C2CC(C)(C)OC(C)(C)C2)cc1-c1ccc(N(C)C)cc1` [Compound 11, 4-[1-(2-Methoxyphenyl)-3-(2,2,6,6-tetramethyltetrahydro-2H-pyran-4-yl)-1H-pyrazol-5-yl]-N,N-dimethylaniline] was 2.4 nM; that for `COc1ccccc1-n1nc(C2CC(C)(C)OC(C)(C)C2)cc1-c1ccncc1` [Compound 32, 4-[1-(2-Methoxyphenyl)-3-(2,2,6,6-tetramethyltetrahydro-2H-pyran-4-yl)-1H-pyrazol-5-yl]pyridine] was 140 nM.
Same read-out and setting: as for `Clc1ccc(-c2cc(C3CCOCC3)nn2-c2c(Cl)cccc2Cl)cc1` [Compound 80, 5-(4-Chlorophenyl)-1-(2,6-dichlorophenyl)-3-(tetrahydro-2H-pyran-4-yl)-1H-pyrazole], the figure is 200 nM.
The same measure, in the same setting: as for `COc1cc(OC)cc(-c2cc(C3CC(C)(C)OC(C)(C)C3)nn2-c2ccccc2OC)c1` [Compound 43, 5-(3,5-Dimethoxyphenyl)-1-(2-methoxyphenyl)-3-(2,2,6,6-tetramethyltetrahydro-2H-pyran-4-yl)-1H-pyrazole], the figure is 58 nM.
On to `COc1ncc(-c2cc(C3CC(C)(C)OC(C)(C)C3)nn2-c2ccccc2OC)cn1` [Compound 39, 2-Methoxy-5-[1-(2-methoxyphenyl)-3-(2,2,6,6-tetramethyltetrahydro-2H-pyran-4-yl)-1H-pyrazol-5-yl]pyrimidine], for which the IC50 came to 72 nM.
Same read-out and setting: as for `COc1ccc(-c2cc(C3CC(C)(C)OC(C)(C)C3)nn2-c2ccccc2OC)cc1OC` [Compound 29, 5-(3,4-Dimethoxyphenyl)-1-(2-methoxyphenyl)-3-(2,2,6,6-tetramethyltetrahydro-2H-pyran-4-yl)-1H-pyrazole], the figure is 58 nM; as for `COc1ccccc1-n1nc(C2CCOCC2)cc1-c1ccc(Cl)cc1` [Compound 71, 5-(4-Chlorophenyl)-1-(2-methoxyphenyl)-3-(tetrahydro-2H-pyran-4-yl)-1H-pyrazole], 31 nM; as for `CCc1ccccc1-n1nc(C2CCOCC2)cc1-c1ccc(Cl)cc1` [Compound 77, 5-(4-Chlorophenyl)-1-(2-ethylphenyl)-3-(tetrahydro-2H-pyran-4-yl)-1H-pyrazole], 150 nM.
On to `COc1ccccc1-n1nc(C2CC(C)(C)OC(C)(C)C2)cc1-c1ncc(C)s1` [Compound 38, 2-[1-(2-Methoxyphenyl)-3-(2,2,6,6-tetramethyltetrahydro-2H-pyran-4-yl)-1H-pyrazol-5-yl]-5-methyl-1,3-thiazole], for which the IC50 came out at 110 nM.
The same measure, in the same setting: the value for `CC1(C)CC(c2cc(-c3ccc(Cl)cc3)n(-c3ccccc3N3CCCC3)n2)CC(C)(C)O1` [Compound 76, 5-(4-Chlorophenyl)-1-(2-pyrrolidin-1-ylphenyl)-3-(2,2,6,6-tetramethyltetrahydro-2H-pyran-4-yl)-1H-pyrazole] was 100 nM; that for `Clc1ccc(-c2cc(C3CCOCC3)nn2-c2ccccc2Cl)cc1` [Compound 74, 1-(2-Chlorophenyl)-5-(4-chlorophenyl)-3-(tetrahydro-2H-pyran-4-yl)-1H-pyrazole] was 53 nM; that for `FC(F)(F)Oc1ccccc1-n1nc(C2CCOCC2)cc1-c1ccc(Cl)cc1` [Compound 79, 5-(4-Chlorophenyl)-3-(tetrahydro-2H-pyran-4-yl)-1-[2-(trifluoromethoxy)phenyl]-1H-pyrazole] was 180 nM.
`COc1ccccc1-n1nc(C2CC(C)(C)OC(C)(C)C2)cc1-c1cc2ccccc2o1` [Compound 41, 5-(1-Benzofuran-2-yl)-1-(2-methoxyphenyl)-3-(2,2,6,6-tetramethyltetrahydro-2H-pyran-4-yl)-1H-pyrazole]: the IC50 amounted to 65 nM.
On the same count and under the same terms, the value for `COc1ccccc1-n1nc(C2CC(C)(C)OC(C)(C)C2)cc1C1=CCCC1` [Compound 37, 5-Cyclopent-1-en-1-yl-1-(2-methoxyphenyl)-3-(2,2,6,6-tetramethyltetrahydro-2H-pyran-4-yl)-1H-pyrazole] was 34 nM.
Still for that read-out and setting: the value for `CC(C)(C)Oc1ccccc1-n1nc(C2CC(C)(C)OC(C)(C)C2)cc1-c1ccc(Cl)cc1` [Compound 48, 1-(2-tert-Butoxyphenyl)-5-(4-chlorophenyl)-3-(2,2,6,6-tetramethyltetrahydro-2H-pyran-4-yl)-1H-pyrazole] was 110 nM.
Still for that read-out and setting: the value for `COc1ccccc1-n1nc(C2CC(C)(C)OC(C)(C)C2)cc1-c1ccc(OC(C)C)cc1` [Compound 24, 1-(2-Methoxyphenyl)-5-[4-(1-methylethoxy)phenyl]-3-(2,2,6,6-tetramethyltetrahydro-2H-pyran-4-yl)-1H-pyrazole] was 11 nM; that for `COc1ccccc1-n1nc([C@@H]2CCO[C@@H](C(C)C)C2)cc1-c1ccc(Cl)cc1` (relative stereo) [Compound 69, 5-(4-Chlorophenyl)-1-(2-methoxyphenyl)-3-[(trans)-2-(1-methylethyl)tetrahydro-2H-pyran-4-yl]-1H-pyrazole] was 20 nM; that for `COc1ccccc1-n1nc(C2CC(C)(C)OC(C)(C)C2)cc1-c1ccc2c(c1)OCCO2` [Compound 27, 5-(2,3-Dihydro-1,4-benzodioxin-6-yl)-1-(2-methoxyphenyl)-3-(2,2,6,6-tetramethyltetrahydro-2H-pyran-4-yl)-1H-pyrazole] was 1.5 nM.

The test system of another test is Cav2.2 (N-type calcium channel; α1B, α2δ and β3 subunits stably expressed in HEK293 cells). The test can be described thus: Automated electrophysiology assay (QPatch-HT patch clamp). Format: cell-based. Particulars: 0.1 μM; high frequency stimulation (15th pulse of 5 Hz train). The procedure:
The Cav2.2 (α1B) subunit (GenBank accession no. AAO53230; supplied by Lipscombe's laboratory at Brown University) was subcloned into pcDNA3.1, whereas the α2δ (M86621) and β3 (M88751) subunits were subcloned into pBudCE4.1 vectors. Stable cell lines expressing all three subunits were generated according to the following procedure: 1) HEK293 cells were transfected with α2δ−1/β3 expression constructs resulting in a stable cell line expressing α2δ−1 and β3 subunits that were selected under 200 μg/mL of Zeocin; 2) a stable cell line expressing α2δ−1/β3 subunits in high quantity as evidenced in its Western blots was isolated from the colony and purified; 3) this cell line was further transfected with Cav2.2 expression constructs, from which cells were subsequently selected under 400 μg/mL G418 and 200 μg/mL Zeocin; 4) these cells were clonally isolated, expanded and screened by Western blot analysis for expressing all three subunits
Cultures of cells stably expressing Cav2.2 were maintained at 37° C. in low glucose-containing Dulbecco's Modified Eagle medium (low glucose) under a 5% CO2 atmosphere. The medium was supplemented with 10% fetal bovine serum, 2 mM L-glutamine, 100 IU/mL penicillin, […] streptomycin, 400 μg/mL G418 and 200 μg/mL Zeocin.
High-throughput automated patch clamp system experiments were carried out using instruments (QPatch-HT) available from Sophion Biosciences, Inc. North Brunswick, N.J. Cells were grown in T175 flasks to 50%-90% confluence were enzymatically treated with Deatchin (Genlantis, San Diego, Calif., U.S.A.), centrifuged, rinsed and resuspended in 293 SFM II media (Life Technologies, Grand Island, N.Y., U.S.A.) supplemented with 25 mM HEPES (Sigma-Aldrich, St. Louis, Mo., U.S.A.) to a concentration of 2−3×10^6 cells/mL. Cells were added to automated cell preparation station on the QPatch-HT (Sophion Biosciences, North Brunswick, N.J., U.S.A.) and following a 10- to 30-min recovery period with gentle stirring, the assay protocol was initiated. During the automated cell preparation, cells were collected, centrifuged and resuspended in an extracellular (EC) solution containing 132 mM NaCl, 1.8 mM CaCl2, 5.4 mM KCl, 0.8 mM MgCl2, 10 mM glucose, and 10 mM HEPES (pH=7.4), adjusted with sucrose to 315 m0sm. The QPlate was primed with an intracellular solution containing 135 CsCl, 10 mM EGTA, 4 MgATP, 0.3 NaGTP, and 20 mM HEPES (pH=7.2), adjusted to approximately 290 m0sm with deionized water and the EC solution. Cells were added to the prepared QPlate wells by robotic pipettes of the QPatch-HT.
For cells determined to be in stable whole-cell patch clamp, the EC solution was replaced with a barium (Ba)/triethylammonium (TEA) solution containing 140 mM TEA-Cl, 10 mM BaCl2, 0.8 mM MgCl2, 10 mM glucose, and 10 mM HEPES (pH=7.4). High (40 mM) BaCl2 concentrations were made with adjustments of TEA-Cl (90 mM) to maintain the osmolarity. From a resting potential of −80 mV, a train of depolarizing pulses (15 pulses at 5 Hz, +20 mV) was delivered to the cell once every 30 sec for eight trains (4 min total), and the resulting currents were measured during a control period (no compound). This protocol was repeated for each subsequent addition of control buffer with or without compound (three periods total, each with four trains). The current generated in the 1st and 15th pulses of the last train of each period in the presence of each drug concentration was normalized to the current generated during the control period at the respective pulses (representing low- and high frequency stimulation, respectively). Data from both the second and third drug application period were analyzed for each cell. A final addition of Ba/TEA solution containing 60-100 uM CdCl2 was made to block all N-type current and “zero” the currents for each cell. A buffer/compound additions were made using a “spitting” feature of the QPatch-HT, which added three repretitions of 5 μL solution at the beginning of each recording period.
A general note: In patch-clamp work, channel activity is measured electrically.
`COc1ccccc1-n1nc(C2CC(C)(C)OC(C)(C)C2)cc1C1=CCC(C)(C)CC1` [Compound 8, 5-(4,4-Dimethylcyclohex-1-en-1-yl)-1-(2-methoxyphenyl)-3-(2,2,6,6-tetramethyltetrahydro-2H-pyran-4-yl)-1H-pyrazole]: the “QPatch % Inhibition, High Freq” value turned out to be 40%.

The test is the same for the next values; noted with them: 0.1 μM; low frequency stimulation (1st pulse of train).
With `COc1ccccc1-n1nc(C2CC(C)(C)OC(C)(C)C2)cc1C1=CCC(C)(C)CC1` [Compound 8, 5-(4,4-Dimethylcyclohex-1-en-1-yl)-1-(2-methoxyphenyl)-3-(2,2,6,6-tetramethyltetrahydro-2H-pyran-4-yl)-1H-pyrazole], the “QPatch % Inhibition, Low Freq” value worked out at 37%.

Broadly, the IC50 is the concentration needed to halve the response being measured.

Values taken from US8901314B2, “Substituted pyrazoles as N-type calcium channel blockers” (Janssen Pharmaceutica NV, priority 2012, dated 2014).
